Some test systems named below: A498; A549; ACHN; CCRF-CEM; COLO 205; HCT-116; HCT-15; KM12; MCF7; Malme-3M; NCI-H23; NCI-H460; NCI-H522; NCI/ADR-RES; PC-3; SK-MEL-2; SK-OV-3; TK-10; UACC-62; SK-MEL-5.
Experiment in all cases: DTP human tumour cell line panel, 48 h

SMILES strings stand for the structures.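 Five compound concentrations were applied to cells in 96-well plates for 48 hours; endpoints were derived by simple linear interpolation of the resulting dose-response curve. GI50 = concentration required for 50% inhibition of growth.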 The source made the active and inactive calls. No stated cut-off is given here; in the data, active = GI50 up to about 1.1 µM and inactive = higher.

Take `O=c1[nH]c(=O)n(COCCOCc2ccccc2)cc1Nc1ccccc1`: the GI50 in the assay on A498, in the assay on A549, in the assay with ACHN, in the assay on CCRF-CEM, in the assay on COLO 205 and in the assay with HCT-116 was > 100 µM (inactive) each time. The GI50 is over 100 µM in the assay with HCT-15; > 100 µM (inactive) in the assay with KM12; > 100 µM (inactive) in the assay with MCF7; > 100 µM (inactive) in the assay with Malme-3M; > 100 µM (inactive) in the assay with NCI-H23; > 100 µM (inactive) in the assay on NCI-H460. Also, the GI50 in the assay on NCI-H522, in the assay on NCI/ADR-RES, in the assay with PC-3, in the assay with SK-MEL-2, in the assay with SK-OV-3 and in the assay with TK-10 was > 100 µM (inactive) in each case. The GI50 with UACC-62 is > 100 µM (inactive).
As for `Cn1c(S)nc(C(N)=O)c1N`, the GI50 is > 100 µM (inactive) with A498; > 100 µM (inactive) in the assay with A549; > 100 µM (inactive) with ACHN; > 100 µM (inactive) in the assay on CCRF-CEM; > 100 µM (inactive) with COLO 205; over 100 µM in the assay on HCT-15. Also, the GI50 in the assay with KM12, in the assay with MCF7, in the assay on Malme-3M, in the assay on NCI-H23, in the assay on NCI-H460 and in the assay on NCI-H522 was > 100 µM (inactive) in each case. In addition, the GI50 in the assay on NCI/ADR-RES, in the assay with PC-3, with SK-MEL-2, in the assay with SK-MEL-5, with SK-OV-3 and in the assay with TK-10 was > 100 µM (inactive) throughout. Moreover, in the assay with UACC-62, the GI50 is > 100 µM (inactive).
As to `CC(C)=Cc1cc2c(cc1O)CCC1C2CC[C@@]2(C)C1CC[C@@H]2O` (stereo partly drawn), the GI50 is 16.4 µM (inactive) in the assay on A498; 12.5 µM (inactive) with A549; 14 µM (inactive) in the assay with ACHN; 12.9 µM (inactive) in the assay with CCRF-CEM; 18.4 µM (inactive) with COLO 205; 10.3 µM (inactive) in the assay with HCT-116. In addition, the 50% growth inhibitory concentration (GI50) with HCT-15 was 8.89 µM; in the assay on KM12, 11.8 µM (inactive); in the assay with MCF7, 14.4 µM (inactive); with Malme-3M, 10.4 µM (inactive); with NCI-H23 it was 15.8 µM (inactive); with NCI-H460, 12 µM (inactive). For the same molecule, the GI50 was 5.35 µM (inactive) in the assay with NCI-H522; 7.66 µM (inactive) in the assay on NCI/ADR-RES; 11.7 µM (inactive) with PC-3; 14.8 µM (inactive) in the assay on SK-MEL-2; 6.24 µM (inactive) in the assay on SK-MEL-5; 14.9 µM (inactive) in the assay on SK-OV-3. For the same molecule, the GI50 in the assay on TK-10 is 3.16 µM (inactive).
For `CCNC(=O)c1cc(/C=C/c2ccc([N+](=O)[O-])o2)nc2ccccc12`, the GI50 in the assay with A498 was 15.5 µM (inactive); in the assay with A549, 24.2 µM (inactive); with ACHN, 2.26 µM (inactive); with CCRF-CEM, 3.18 µM (inactive); in the assay with COLO 205, 3.8 µM (inactive); with HCT-116, 5.4 µM (inactive). In addition, the 50% growth inhibitory concentration (GI50) is 3.88 µM in the assay on HCT-15; 98.6 µM (inactive) in the assay with KM12; 6.4 µM (inactive) in the assay on MCF7; 15.7 µM (inactive) with Malme-3M; 16.9 µM (inactive) in the assay on NCI-H23; 1.8 µM (inactive) in the assay with NCI-H460. Further, the GI50 in the assay with NCI-H522 was 4.21 µM (inactive); in the assay on NCI/ADR-RES, 51.4 µM (inactive); in the assay with PC-3, > 100 µM (inactive); in the assay on SK-MEL-2 it was 3.52 µM (inactive); with SK-MEL-5 it was 1.5 µM (inactive); in the assay on SK-OV-3, 33.6 µM (inactive). Besides, the GI50 in the assay with UACC-62 was 32.1 µM (inactive).
As to `Cc1cccc2c(N)c3cccc(C(=O)NCC[N+](C)(C)Cc4sc(N5CCOCC5)nc4[N+](=O)[O-])c3nc12`, the GI50 with A498 is 11.4 µM (inactive); with A549 it was 0.178 µM (active); in the assay on ACHN, 0.381 µM (active); in the assay with CCRF-CEM it was 0.217 µM (active); in the assay with COLO 205 it was 1.2 µM (inactive); in the assay on HCT-116, 1.93 µM (inactive). Besides, the GI50 with HCT-15 was 1.08 µM; in the assay with KM12, 2.43 µM (inactive); with MCF7, 0.438 µM (active); with Malme-3M, 5.93 µM (inactive); in the assay with NCI-H23, 2.26 µM (inactive); in the assay with NCI-H522, 1.12 µM (inactive). Moreover, the GI50 with NCI/ADR-RES is 3.12 µM (inactive); in the assay on PC-3 it was 3.37 µM (inactive); in the assay with SK-MEL-2, 22.6 µM (inactive); in the assay on SK-MEL-5, 5.01 µM (inactive); in the assay on SK-OV-3 it was 1.82 µM (inactive); with TK-10 it was 10.3 µM (inactive). In the assay with UACC-62, the GI50 is 3.89 µM (inactive).
For the molecule `CCn1c2c(c3ccccc3c1=O)C(=O)c1ccccc1-2`, the GI50 with A498 was > 100 µM (inactive); with A549 it was > 100 µM (inactive); in the assay on CCRF-CEM it was 22 µM (inactive); with COLO 205, > 100 µM (inactive); with HCT-116 it was > 100 µM (inactive); with HCT-15, over 100 µM. For the same molecule, the GI50 with KM12, in the assay on MCF7, in the assay on Malme-3M, in the assay with NCI-H23, in the assay on NCI-H522 and in the assay on NCI/ADR-RES was > 100 µM (inactive) each time. The GI50 is > 100 µM (inactive) in the assay on PC-3; > 100 µM (inactive) in the assay with SK-MEL-2; 50.1 µM (inactive) in the assay with SK-MEL-5; > 100 µM (inactive) in the assay with SK-OV-3; > 100 µM (inactive) in the assay with TK-10; > 100 µM (inactive) in the assay on UACC-62.
Regarding `CSc1nc(Cl)c(Br)c(Nc2cnc(O)nc2O)n1`, the GI50 was 11.6 µM (inactive) in the assay with A498; 19.2 µM (inactive) in the assay with A549; 18.7 µM (inactive) in the assay on ACHN; 17.7 µM (inactive) with CCRF-CEM; 16.8 µM (inactive) in the assay on COLO 205; 14.6 µM (inactive) in the assay on HCT-116. Further, the 50% growth inhibitory concentration (GI50) in the assay with HCT-15 was 7.41 µM; in the assay on KM12 it was 22.8 µM (inactive); in the assay with MCF7, 38 µM (inactive); with Malme-3M it was 20.7 µM (inactive); in the assay on NCI-H23, 17.3 µM (inactive); in the assay with NCI-H522, 1.87 µM (inactive). The GI50 in the assay on NCI/ADR-RES is 19.7 µM (inactive); with PC-3, 18.8 µM (inactive); in the assay on SK-MEL-2, 17.5 µM (inactive); with SK-MEL-5, 19.6 µM (inactive); in the assay on SK-OV-3, 19.4 µM (inactive); in the assay on TK-10, 14.7 µM (inactive). Besides, the GI50 in the assay on UACC-62 was 15.2 µM (inactive).
Consider `CC1CC(=O)N(N(C)C)C2(C#N)C(=O)N=C(N)C12C#N` (stereo not drawn), for which the GI50 is > 100 µM (inactive) in the assay on A498; > 100 µM (inactive) in the assay on A549; > 100 µM (inactive) with ACHN; 23.2 µM (inactive) in the assay on CCRF-CEM; 38.7 µM (inactive) in the assay with COLO 205; > 100 µM (inactive) in the assay with HCT-116. The concentration for 50% growth inhibition (GI50) in the assay with HCT-15 is over 100 µM; in the assay on KM12 it was > 100 µM (inactive); in the assay with MCF7 it was > 100 µM (inactive); with Malme-3M, > 100 µM (inactive); with NCI-H23 it was > 100 µM (inactive); in the assay on NCI-H522, 32.4 µM (inactive). The GI50 in the assay on NCI/ADR-RES, with PC-3, in the assay on SK-MEL-2, in the assay on SK-MEL-5, in the assay with SK-OV-3 and in the assay on TK-10 was > 100 µM (inactive) each time. For the same molecule, the GI50 in the assay on UACC-62 was 35.8 µM (inactive).
As to `COc1nc(C#CC2(O)CCCCC2)nc(OC)n1`, the GI50 in the assay with A498 is 17.3 µM (inactive); in the assay on A549, 13.9 µM (inactive); in the assay on ACHN, 8.49 µM (inactive); in the assay on CCRF-CEM, 12.3 µM (inactive); with COLO 205 it was 14.7 µM (inactive); in the assay with HCT-116, 9.4 µM (inactive). The GI50 in the assay with HCT-15 was 2.69 µM; in the assay on KM12, 15.8 µM (inactive); in the assay on MCF7, 4.28 µM (inactive); with Malme-3M it was 3.1 µM (inactive); in the assay with NCI-H23 it was 13.7 µM (inactive); in the assay on NCI-H460, 24.3 µM (inactive). Also, the GI50 is 10 µM (inactive) in the assay on NCI-H522; 23.6 µM (inactive) in the assay with NCI/ADR-RES; 5.62 µM (inactive) in the assay on PC-3; 14 µM (inactive) in the assay on SK-MEL-2; 7.43 µM (inactive) in the assay on SK-MEL-5; 53.6 µM (inactive) in the assay on SK-OV-3. For the same molecule, the GI50 with UACC-62 was 6.55 µM (inactive).
On to `NC(=O)NNc1nc2ccccc2c(=O)n1NC(=O)C(=O)Nc1ccc(Cl)cc1Cl`, for which the GI50 in the assay with A498 is > 100 µM (inactive); with A549, > 100 µM (inactive); with ACHN, > 100 µM (inactive); in the assay with CCRF-CEM it was > 100 µM (inactive); in the assay with HCT-116, > 100 µM (inactive); with HCT-15 it was over 100 µM. Further, the GI50 in the assay on KM12, in the assay on MCF7, with Malme-3M, with NCI-H23, with NCI-H460 and in the assay with NCI-H522 was > 100 µM (inactive) throughout. In addition, the GI50 in the assay on NCI/ADR-RES, in the assay on PC-3, in the assay with SK-MEL-2, in the assay on SK-MEL-5, in the assay with SK-OV-3 and in the assay on TK-10 was > 100 µM (inactive) throughout. The GI50 in the assay on UACC-62 is > 100 µM (inactive).
For the molecule `CCOC(=O)Cn1c(=O)c2nc(SC)sc2n(-c2ccc(C)cc2)c1=S`, the GI50 is 46.8 µM (inactive) in the assay with A498; > 60.4 µM (inactive) in the assay on A549; 48.1 µM (inactive) in the assay with ACHN; > 100 µM (inactive) in the assay on CCRF-CEM; > 100 µM (inactive) in the assay with COLO 205; > 71.8 µM (inactive) in the assay with HCT-116. Also, the GI50 in the assay with HCT-15 is over 100 µM; in the assay with MCF7, > 100 µM (inactive); in the assay with Malme-3M it was 40.4 µM (inactive); with NCI-H23, > 49 µM (inactive); with NCI-H460, 48 µM (inactive); with NCI-H522 it was 79.6 µM (inactive). In addition, the GI50 was 50.6 µM (inactive) in the assay with NCI/ADR-RES; 38.1 µM (inactive) with PC-3; 23.7 µM (inactive) with SK-MEL-2; > 100 µM (inactive) with SK-MEL-5; 45.8 µM (inactive) with SK-OV-3; 36.7 µM (inactive) in the assay with TK-10. In addition, the GI50 with UACC-62 was 43.8 µM (inactive).
